Assay results from patent US4694069A, “Kibdelosporangium aridum SK&F-AAD-609” (SmithKline Beckman Corporation, priority 1985, dated 1987).
Values after ≈ are worked out from the molar mass of the structure shown. Read-outs that look alike come from different tables or passages of the source.

What was measured:
S. aureus 675 = assay: In vitro MIC, standard microtiter assay; format: cell-based, Staphylococcus aureus; conditions: Staphylococcus aureus, 675; Table A; read-out: MIC
Source text: (§1) In vitro minimum inhibitory concentrations (MIC) of the AAD-609 complex and of Factors A, B, CC2 and D, using standard microtiter assay procedures, against a number of microorganisms are reported in Table A, which follows.

S. aureus 674 = assay: In vitro MIC, standard microtiter assay; format: cell-based, Staphylococcus aureus; conditions: Staphylococcus aureus, 674; Table A; read-out: MIC
Source text: as §1

[1] = tested on: S. aureus 910 (methicillin resistant strain); assay: In vitro MIC, standard microtiter assay; format: cell-based, Staphylococcus aureus; conditions: Staphylococcus aureus; Table A; methicillin resistant strain; read-out: MIC
Source text: as §1

S. aureus 209P = assay: In vitro MIC, standard microtiter assay; format: cell-based, Staphylococcus aureus; conditions: Staphylococcus aureus, 209P; Table A; read-out: MIC
Source text: as §1

[2] = tested on: S. aureus 2620 (methicillin resistant strain); assay: MIC; format: cell-based; conditions: Staphylococcus aureus; Table B; methicillin resistant strain; read-out: MIC
Source text: as §1

[3] = tested on: rumen fermentation (strained rumen fluid); assay: Rumen in vitro model; parameters: species or system steer; conditions: for AAN (alpha amino nitrogen) / AMO (ammonia nitrogen) / LYS (lysine): 6 h; for % PR (percent propionate) / ACE (acetate) / BUT (butyrate) / ETOH (ethanol) / IBU (isobutyrate) / IVA (isovalerate) / PRO (propionate) / TOTAL (total volatile fatty acids) / VAL: 24 h
Description: The AAD-609 antibiotics were characterized in a rumen in vitro model to assess their potential as feed additives for ruminants. […] Specifically, strained rumen fluid (10 ml) obtained from a fistulated steer receiving a roughage ration, was mixed with 10 ml of nutrient broth (20 mg casein hydrolysate, 100 mg maltose, 15 mg urea, 400 mg solka floc (cellulose), 100 mg cellobiose and 100 mg starch) and with a selected growth promotant and incubated at 39° C., with oscillation, for 24 hours. […] Measurement of AMO, LYS and AAN was done with a sample taken from the incubation flask after 6 hours.

Pharmacokinetics in mice = conditions: mice
S. faecalis 34358 = assay: In vitro MIC, standard microtiter assay; format: cell-based, Streptococcus faecalis
Source text: as §1

[4] = pKa by potentiometric titration; conditions: 30:70 acetonitrile:water, apparent values, AAD-216A averaged previous results
[5] = tested on: mixed intestinal microflora (cecum fluid); assay: Swine in vitro model; conditions: one level, up to 166.67 ppm; 4-5 h
Description: A swine in vitro model was used to characterize AAD-609 antibiotics as potential feed additives in swine and poultry. Mixed intestinal microflora were obtained from ileally-cannulated pigs. Virginiamycin, carbadox, AAD-216 and its components, and AAD-609 Complex (containing less than 5% AAD-216 antibiotics) were tested at one level. […] Glucose (GLU) was spared from microbial degradation. Volatile fatty acids (TOTAL) were the major end-product of microbial metabolism while lactic acid production were reduced. […] Since AAD-609 and AAD-216 give similar in vitro results, it is expected that AAD-609 has similar growth-promoting activity in monogastric animals. Also, the in vitro activity of AAD-609 is similar to the activity previously observed with bacitracin in this model.
The swine in vitro model was carried out by incubating 1.5 ml of cecum fluid, from a swine fed normal rations, mixed with 1.5 ml of a nutrient broth (3 mg casein hydrolysate, 30 mg maltose, 1.25 mg urea, 0.5 mg lysine, and 30 mg cellobiose) and with up to 166.67 parts per million of a selected growth promotant at 39° C., with oscillation, for about 4-5 hours. Results, percentage of control, are reported in the following table in which all abbreviations are as above except that LLA means L-lactate and ETOH means ethanol.

[6] = tested on: Streptococcus faecalis 657; assay: In vitro MIC, standard microtiter assay; format: cell-based; conditions: Enterococcus faecalis, 657; Table A; read-out: MIC
Source text: as §1

Escherichia coli 12140 = assay: In vitro MIC, standard microtiter assay; format: cell-based; conditions: Escherichia coli, 12140; Table A; read-out: MIC
Source text: as §1

[7] = tested on: S. epidermidis 651 (methicillin resistant strain); assay: In vitro MIC, standard microtiter assay; format: cell-based; conditions: methicillin resistant strain
Source text: as §1

S. epidermidis 2683 = assay: In vitro MIC, standard microtiter assay; format: cell-based; conditions: Staphylococcus epidermidis, 2683; Table A; read-out: MIC
Source text: as §1

[8] = tested on: Staphylococcus aureus HH127; assay: In vitro MIC, standard microtiter assay; format: cell-based
Source text: as §1

[9] = tested on: Salmonella gallinarum BC-595; assay: In vitro MIC, standard microtiter assay; format: cell-based; conditions: Salmonella enterica, GALLINARUM; Table A; read-out: MIC
Source text: as §1

Clostridium difficile = assay: In vitro MIC, standard microtiter assay; format: cell-based; conditions: Clostridioides difficile; Table A; read-out: MIC
Source text: as §1

S. epidermidis 2479 = assay: In vitro MIC, standard microtiter assay; format: cell-based
Source text: as §1

S. epidermidis 2265 = assay: In vitro MIC, standard microtiter assay; format: cell-based; conditions: Staphylococcus epidermidis, 2265; Table A; read-out: MIC
Source text: as §1

[10] = comparators, source not given; cited from earlier work

CCCCCCCCCC(=O)NC1C(Oc2c3cc4cc2Oc2c(Cl)cc(cc2Cl)C(O)C2NC(=O)C(NC(=O)C4NC(=O)C4NC(=O)C(NC(=O)C(NC)c5ccc(O)c(c5)Oc5cc(O)c(Cl)c4c5)C(O)c4ccc(c(Cl)c4)O3)c3ccc(O)c(c3)-c3c(OC4OC(CO)C(O)C(O)C4O)cc(O)cc3C(C(=O)O)NC2=O)OC(C(=O)O)C(O)C1O (stereo not drawn) [AAD-216 A]
MIC (S. aureus 675): 12.5 µg/mL (≈ 6.99 µM) | MIC (S. aureus 674): 3.1 µg/mL (≈ 1.73 µM) | MIC [1]: 3.1 µg/mL (≈ 1.73 µM) | MIC (S. aureus 209P): 0.8 µg/mL (≈ 0.447 µM) | MIC [2]: 4 µg/mL (≈ 2.24 µM) | AAN (alpha amino nitrogen) ([3]; 0.50 ppm): 76 % of control | AMO (ammonia nitrogen) ([3]; 0.50 ppm): 102 % of control | LYS (lysine) ([3]; 0.50 ppm): 108 % of control | % PR (percent propionate) ([3]; 0.50 ppm): 106 % of control | ACE (acetate) ([3]; 0.50 ppm): 96 % of control | BUT (butyrate) ([3]; 0.50 ppm): 100 % of control | ETOH (ethanol) ([3]; 0.50 ppm): 0 % of control | IBU (isobutyrate) ([3]; 0.50 ppm): 125 % of control | IVA (isovalerate) ([3]; 0.50 ppm): 124 % of control | PRO (propionate) ([3]; 0.50 ppm): 107 % of control | TOTAL (total volatile fatty acids) ([3]; 0.50 ppm): 101 % of control | AAN (alpha amino nitrogen) ([3]; 5.00 ppm): 153 % of control | AMO (ammonia nitrogen) ([3]; 5.00 ppm): 101 % of control | LYS (lysine) ([3]; 5.00 ppm): 144 % of control | % PR (percent propionate) ([3]; 5.00 ppm): 148 % of control | ACE (acetate) ([3]; 5.00 ppm): 105 % of control | BUT (butyrate) ([3]; 5.00 ppm): 81 % of control | ETOH (ethanol) ([3]; 5.00 ppm): 0 % of control | IBU (isobutyrate) ([3]; 5.00 ppm): 75 % of control | IVA (isovalerate) ([3]; 5.00 ppm): 48 % of control | PRO (propionate) ([3]; 5.00 ppm): 153 % of control | TOTAL (total volatile fatty acids) ([3]; 5.00 ppm): 103 % of control | VAL ([3]; 5.00 ppm): 56 % of control | AAN (alpha amino nitrogen) ([3]; 50.00 ppm): 195 % of control | AMO (ammonia nitrogen) ([3]; 50.00 ppm): 109 % of control | LYS (lysine) ([3]; 50.00 ppm): 168 % of control | % PR (percent propionate) ([3]; 50.00 ppm): 140 % of control | ACE (acetate) ([3]; 50.00 ppm): 93 % of control | BUT (butyrate) ([3]; 50.00 ppm): 87 % of control | ETOH (ethanol) ([3]; 50.00 ppm): 0 % of control | IBU (isobutyrate) ([3]; 50.00 ppm): 112 % of control | IVA (isovalerate) ([3]; 50.00 ppm): 98 % of control | PRO (propionate) ([3]; 50.00 ppm): 138 % of control | TOTAL (total volatile fatty acids) ([3]; 50.00 ppm): 98 % of control | VAL ([3]; 50.00 ppm): 26 % of control | Elimination half-life (Pharmacokinetics in mice): 3.77 h | Maximum serum concentration (Pharmacokinetics in mice): 121 µg/mL | MIC (S. faecalis 34358; Enterococcus faecalis, 34358, Table A, read-out: MIC): 0.4 µg/mL (≈ 0.224 µM) | MIC (S. faecalis 34358; Table B): 0.4 µg/mL (≈ 0.224 µM) | pKa (A) carboxyl on aglycone [4]: 3.0 | pKa (B) carboxyl on side chain [4]: 4.9 | pKa (C) amino group on aglycone [4]: 7.4 | pKa (D) phenolic OH ([4]; first phenolic OH): 8.4 | pKa (D) phenolic OH ([4]; second phenolic OH): 10.0 | pKa (D) phenolic OH ([4]; third phenolic OH): 10.3 | % PR (percent propionate) [5]: 117 % of control | ACE (acetate) [5]: 200 % of control | BUT (butyrate) [5]: 147 % of control | ETOH (ethanol) [5]: 167 % of control | GLU (glucose) [5]: 180 % of control | IBU (isobutyrate) [5]: 0 % of control | IVA (isovalerate) [5]: 0 % of control | LLA (L-lactate) [5]: 2 % of control | LYS (lysine) [5]: 35 % of control | PRO (propionate) [5]: 276 % of control | TOTAL (total volatile fatty acids) [5]: 236 % of control | VAL [5]: 0 % of control | MIC [6]: 0.8 µg/mL (≈ 0.447 µM) | MIC (Escherichia coli 12140): > 100 µg/mL | MIC ([7]; Staphylococcus epidermidis, Table A, read-out: MIC): 100 µg/mL (≈ 55.9 µM) | MIC ([7]; Table B): 100 µg/mL (≈ 55.9 µM) | MIC (S. epidermidis 2683): 50 µg/mL (≈ 27.9 µM) | MIC ([8]; Staphylococcus aureus, HH127, Table A, read-out: MIC): 3.1 µg/mL (≈ 1.73 µM) | MIC ([8]; Table B): 3.1 µg/mL (≈ 1.73 µM) | MIC [9]: > 100 µg/mL | MIC (Clostridium difficile): 0.25 µg/mL (≈ 0.14 µM) | MIC (S. epidermidis 2479; Staphylococcus epidermidis, 2479, Table A, read-out: MIC): 25 µg/mL (≈ 14 µM) | MIC (S. epidermidis 2479; Table B): 25 µg/mL (≈ 14 µM) | MIC (S. epidermidis 2265): 50 µg/mL (≈ 27.9 µM)

ristocetin
Isoelectric point [10]: 8.4
